# *1 amine or outer side, *2 acyl side, *3 side chain or, on linkers, in order; H or OH if unused. Where a SMILES comes first, the peptide text is derived from it. [ ]: non-standard residue; d: D form. The star is where a group is joined. X1 = O=C([C@@]1(O)C[C@@H](O)[C@H](N[*:1])C([C@@H](O)[C@@H](O)CO)O1)[*:2]; NMeW = CN[C@@H](Cc1c[nH]c2ccccc12)C(=O)O; Phe(3-Br) = N[C@@H](Cc1cccc(Br)c1)C(=O)O; Fmoc = O=C(OCC1c2ccccc2-c2ccccc21)*; Aad = N[C@@H](CCCC(=O)O)C(=O)O; Nle = CCCC[C@H](N)C(=O)O
# Biological target: T1, CCK-B receptors (CHO-CCK) (Homo sapiens, UniProt P32239)
# T1 construct: expressed in transfected cells; host or cells: CHO (CHO-CCK model cells)
# T1 sequence (P32239 1-447): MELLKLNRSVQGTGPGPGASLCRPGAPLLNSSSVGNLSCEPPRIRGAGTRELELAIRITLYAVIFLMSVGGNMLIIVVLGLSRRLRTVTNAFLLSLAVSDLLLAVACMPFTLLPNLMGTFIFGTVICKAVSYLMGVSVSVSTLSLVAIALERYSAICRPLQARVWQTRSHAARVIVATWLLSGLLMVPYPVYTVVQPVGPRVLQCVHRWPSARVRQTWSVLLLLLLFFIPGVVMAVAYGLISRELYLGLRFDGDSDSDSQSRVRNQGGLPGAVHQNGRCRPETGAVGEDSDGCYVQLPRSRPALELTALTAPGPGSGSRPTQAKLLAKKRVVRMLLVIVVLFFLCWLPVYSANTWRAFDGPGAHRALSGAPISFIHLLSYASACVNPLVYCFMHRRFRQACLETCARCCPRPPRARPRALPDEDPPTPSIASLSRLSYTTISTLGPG
# Assay: Calcium flux (Fluo-8) agonist test on CHO-CCK model cells
# Assay type: cell-based
# Settings: CHO-CCK cells, Fluo-8 calcium flux; 100% control = 20 nM CCK8
# Experimental: • To detect changes in intracellular calcium ion concentration after the compound acts on model cells containing CCK-B receptors (CHO-CCK).
# • 1. The compound was formulated to a 10 mM mother liquor with DMSO, and then diluted into a series of 9 concentrations with a 3-fold gradient to form a 1000× stock solution.
# 2.1 Agonist • The compound stock solution was subjected to 200-fold dilution with HHBS buffer to form a 5× working solution.
# • 1. Plate CHO-CCK cells in a 96-well plate with media containing 1% FBS, 30,000 cells/well/100 μL, and incubate overnight at 37° C. • 2. Prepare 1×Fluo-8 analysis buffer: mix 9 mL of HHBS, 1 mL of 10× Pluronic F127 Plus and 20 μL of Fluo-8 thoroughly for later use. • 3. Add Fluo-8 dye working solution to the cell plate, 100 μL/well. First incubate in a 37° C. incubator for 30 min, and then take it out and incubate at room temperature in the dark for 30 min. • 4. In the process of incubating cells, the compounds to be detected were prepared with HHBS. • 5.
# The agonism/antagonism EC50 of the compound can be obtained by plotting the fitting curve with the agonism/antagonism percentage as Y-axis and the concentration of the compound as X-axis.
row,SMILES,EC50 [µM]
1,"CCCC[C@H](NC(=O)[C@H](Cc1c[nH]c2ccccc12)N(C)C(=O)OCC1c2ccccc2-c2ccccc21)C(=O)N[C@@H](CC(=O)O)C(=O)N[C@@H](Cc1cccc(Br)c1)C(N)=O [HT-199, Fmoc-(N-Me-Trp)-Nle-Asp-Phe(3-Br)-NH2] (Fmoc-[NMeW][Nle]D[Phe(3-Br)]-NH2)",0.00147

# Same assay, conditions: CHO-CCK cells, Fluo-8 calcium flux; bound in μM
row,SMILES,EC50 [µM]
1,"C[C@@H](NC(=O)[C@H](Cc1cccc(Br)c1)NC(=O)[C@H](CC(=O)O)NC(=O)[C@H](CCCCN)NC(=O)[C@H](N)Cc1c[nH]c2ccccc12)C(N)=O [HT-288, D-Trp-Lys-Asp-Phe(3-Br)-D-Ala-NH2] (H-[dW]KD[Phe(3-Br)][dA]-NH2)",> 10

# Same assay, conditions: CHO-CCK cells, compound alone; 100% = 20 nM CCK8
row,SMILES,EC50 [µM]
1,"C[S+]([O-])CC[C@H](NC(=O)[C@H](N)Cc1c[nH]c2ccccc12)C(=O)N[C@@H](CC(=O)O)C(=O)N[C@@H](Cc1cc(F)c(F)c(F)c1)C(N)=O (stereo partly drawn) [HT-57, D-Trp-Met(O)-Asp-Phe(3,4,5-TriF)-NH2]",6.79
2,"CS(=O)(=O)CC[C@H](NC(=O)[C@H](N)Cc1c[nH]c2ccccc12)C(=O)N[C@@H](CC(=O)O)C(=O)N[C@@H](Cc1cccc(I)c1)C(N)=O [HT-62, D-Trp-Met(O2)-Asp-Phe(3-I)-NH2]",4.37

# Same assay, conditions: CHO-CCK cells, compound alone; bound in μM
row,SMILES,EC50 [µM]
1,"CSCC[C@H](NC(=O)[C@H](CC(=O)O)NC(=O)[C@H](Cc1ccccc1)NC(C)=O)C(=O)N[C@@H](Cc1c[nH]c2ccccc12)C(=O)O [HT-3, Ac-Phe-Asp-Met-Trp-NH2]",> 10

# Same assay, conditions: compound at 1 nM, CHO-CCK cells
row,SMILES,% Act-Ave @ 1 nM [%]
1,"CCCC[C@H](NC(=O)[C@H](Cc1c[nH]c2ccccc12)N(C)C(=O)[C@@]1(O)C[C@@H](O)[C@H](NC(C)=O)C([C@@H](O)[C@@H](O)CO)O1)C(=O)N[C@@H](CC(=O)O)C(=O)N[C@@H](Cc1cccc(Br)c1)C(N)=O (stereo partly drawn) [HT-278, Sia-(N-Me-Trp)-Nle-Asp-Phe(3-Br)-NH2] (Ac-[X1][NMeW][Nle]D[Phe(3-Br)]-NH2)",40.85
2,"CCCC[C@H](NC(C)=O)C(=O)N[C@@H](CC(=O)O)C(=O)N[C@@H](Cc1cccc(Br)c1)C(N)=O [HT-283, Ac-Nle-Asp-Phe(3-Br)-NH2] (Ac-[Nle]-Asp-[Phe(3-Br)]-NH2)",−0.04
3,"CCCC[C@H](NC(=O)[C@H](Cc1c[nH]c2ccccc12)N(C)C(=O)[C@@]1(O)C[C@@H](O)[C@H](NC(C)=O)C([C@@H](O)[C@@H](O)CO)O1)C(=O)N[C@@H](CCCC(=O)O)C(=O)N[C@@H](Cc1cccc(Br)c1)C(N)=O (stereo partly shown) [HT-275, Trp)-Nle-Aa-Phe(3-Br)-NH2] (Ac-[X1][NMeW][Nle][Aad][Phe(3-Br)]-NH2)",62.28

# Same assay, conditions: compound at 50 nM, CHO-CCK cells
row,SMILES,% Act-Ave @ 50 nM [%]
1,"CCCC[C@H](NC(=O)[C@H](Cc1c[nH]c2ccccc12)N(C)C(=O)[C@@]1(O)C[C@@H](O)[C@H](NC(C)=O)C([C@@H](O)[C@@H](O)CO)O1)C(=O)N[C@@H](CC(=O)O)C(=O)N[C@@H](Cc1cccc(Br)c1)C(N)=O (stereo partly drawn) [HT-278, Sia-(N-Me-Trp)-Nle-Asp-Phe(3-Br)-NH2] (Ac-[X1][NMeW][Nle]D[Phe(3-Br)]-NH2)",93.12
2,"CCCC[C@H](NC(C)=O)C(=O)N[C@@H](CC(=O)O)C(=O)N[C@@H](Cc1cccc(Br)c1)C(N)=O [HT-283, Ac-Nle-Asp-Phe(3-Br)-NH2] (Ac-[Nle]-Asp-[Phe(3-Br)]-NH2)",−0.03
3,"CCCC[C@H](NC(=O)[C@H](Cc1c[nH]c2ccccc12)N(C)C(=O)[C@@]1(O)C[C@@H](O)[C@H](NC(C)=O)C([C@@H](O)[C@@H](O)CO)O1)C(=O)N[C@@H](CCCC(=O)O)C(=O)N[C@@H](Cc1cccc(Br)c1)C(N)=O (stereo partly shown) [HT-275, Trp)-Nle-Aa-Phe(3-Br)-NH2] (Ac-[X1][NMeW][Nle][Aad][Phe(3-Br)]-NH2)",100.24

# Same assay, conditions: compound at 10 μM; percentage of signal of 20 nM CCK8 alone
row,SMILES,Agonistic Activity (%) at 10 μM [%]
1,"COC(=O)C[C@H](NC(=O)[C@H](CC[S+](C)[O-])NC(=O)[C@H](N)Cc1c[nH]c2ccccc12)C(=O)N[C@@H](Cc1ccccc1)C(N)=O (stereo partly drawn) [HT-20, D-Trp-Met(O)-Asp(OMe)-Phe-NH2]",−9.73
2,"CS(=O)(=O)CC[C@H](NC(=O)[C@H](N)Cc1c[nH]c2ccccc12)C(=O)N[C@@H](CC(=O)OCCNc1cccc2c(O)cccc12)C(=O)N[C@@H](Cc1cccc(F)c1)C(N)=O [HT-163, D-Trp-Met(O2)-Asp(EDANS)-Phe(3-F)-NH2]",2.64
3,"CSCC[C@H](NC(=O)[C@H](N)Cc1c[nH]c2ccccc12)C(=O)N[C@@H](CC(=O)O)C(=O)N[C@@H](Cc1ccc(N=[N+]=[N-])cc1)C(N)=O [HT-31, D-Trp-Met-Asp-Phe(4-N3)-NH2]",6.07
4,"C[S+]([O-])CC[C@H](NC(=O)[C@H](N)Cc1c[nH]c2ccccc12)C(=O)N[C@@H](CC(=O)O)C(=O)N[C@@H](Cc1cc(F)c(F)c(F)c1)C(N)=O (stereo partly drawn) [HT-57, D-Trp-Met(O)-Asp-Phe(3,4,5-TriF)-NH2]",56.81
5,"C[S+]([O-])CC[C@H](NC(=O)[C@H](N)Cc1c[nH]c2ccccc12)C(=O)N[C@@H](CC(=O)O)C(=O)N[C@@H](Cc1ccc(I)cc1)C(N)=O (stereo partly drawn) [HT-54, D-Trp-Met(O)-Asp-Phe(4-I)-NH2]",3.14
6,"COC(=O)C[C@H](NC(=O)[C@H](CCS(C)(=O)=O)NC(=O)[C@H](N)Cc1c[nH]c2ccccc12)C(=O)N[C@@H](Cc1cccc(Br)c1)C(N)=O [HT-131, D-Trp-Met(O2)-Asp(Ome)-Phe(3-Br)-NH2]",5.87
7,"COC(=O)C[C@H](NC(=O)[C@H](CCSC)NC(=O)[C@H](N)Cc1c[nH]c2ccccc12)C(=O)N[C@@H](Cc1cc(F)c(F)c(F)c1)C(N)=O [HT-91, D-Trp-Met-Asp(Ome)-Phe(3,4,5-TriF)-NH2]",3.12
8,"COC(=O)C[C@H](NC(=O)[C@H](CCS(C)(=O)=O)NC(=O)[C@H](N)Cc1c[nH]c2ccccc12)C(=O)N[C@@H](Cc1ccccc1)C(N)=O [HT-22, D-Trp-Met(O2)-Asp(OMe)-Phe-NH2]",0.98
9,"COC(=O)C[C@H](NC(=O)[C@H](CCS(C)(=O)=O)NC(=O)[C@H](N)Cc1c[nH]c2ccccc12)C(=O)N[C@@H](Cc1cc(F)c(F)c(F)c1)C(N)=O [HT-142, D-Trp-Met(O2)-Asp(Ome)-Phe(3,4,5-TriF)-NH2]",0.79
10,"COC(=O)C[C@H](NC(=O)[C@H](CC[S+](C)[O-])NC(=O)[C@H](N)Cc1c[nH]c2ccccc12)C(=O)N[C@@H](Cc1cccc(F)c1)C(N)=O (stereo partly drawn) [HT-112, D-Trp-Met(O)-Asp(Ome)-Phe(3-F)-NH2]",2.89
11,"COC(=O)C[C@H](NC(=O)[C@H](CCSC)NC(=O)[C@H](N)Cc1c[nH]c2ccccc12)C(=O)N[C@@H](Cc1cccc(Cl)c1)C(N)=O [HT-77, D-Trp-Met-Asp(Ome)-Phe(3-Cl)-NH2]",1.83
12,"COC(=O)C[C@H](NC(=O)[C@H](CCSC)NC(=O)[C@H](N)Cc1c[nH]c2ccccc12)C(=O)N[C@@H](Cc1ccc(Br)cc1)C(N)=O [HT-85, D-Trp-Met-Asp(Ome)-Phe(4-Br)-NH2]",7.32
13,"CSCC[C@H](NC(=O)[C@H](N)Cc1c[nH]c2ccccc12)C(=O)N[C@@H](CC(=O)OCCNc1cccc2c(O)cccc12)C(=O)N[C@@H](Cc1ccc(Cl)cc1)C(N)=O [HT-103, D-Trp-Met-Asp(EDANS)-Phe(4-Cl)-NH2]",1.03
14,"COC(=O)C[C@H](NC(=O)[C@H](CC[S+](C)[O-])NC(=O)[C@H](N)Cc1c[nH]c2ccccc12)C(=O)N[C@@H](Cc1cccc(Br)c1)C(N)=O (stereo partly drawn) [HT-114, D-Trp-Met(O)-Asp(Ome)-Phe(3-Br)-NH2]",−8.48
15,"CS(=O)(=O)CC[C@H](NC(=O)[C@H](N)Cc1c[nH]c2ccccc12)C(=O)N[C@@H](CC(=O)O)C(=O)N[C@@H](Cc1cccc(I)c1)C(N)=O [HT-62, D-Trp-Met(O2)-Asp-Phe(3-I)-NH2]",4.26
16,"COC(=O)C[C@H](NC(=O)[C@H](CCSC)NC(=O)[C@H](N)Cc1c[nH]c2ccccc12)C(=O)N[C@@H](Cc1ccc(C)cc1)C(N)=O [HT-81, D-Trp-Met-Asp(Ome)-Phe(4-Me)-NH2]",12.27
17,"CS(=O)(=O)CC[C@H](NC(=O)[C@H](N)Cc1c[nH]c2ccccc12)C(=O)N[C@@H](CC(=O)O)C(=O)N[C@@H](Cc1ccccc1)C(N)=O [HT-17, D-Trp-Met(O2)-Asp-Phe-NH2]",19.12
18,"Cc1ccc(C[C@H](NC(=O)[C@H](CC(=O)O)NC(=O)[C@H](CC[S+](C)[O-])NC(=O)[C@H](N)Cc2c[nH]c3ccccc23)C(N)=O)cc1 (stereo partly drawn) [HT-47, D-Trp-Met(O)-Asp-Phe(4-Me)-NH2]",26.99
19,"COC(=O)C[C@H](NC(=O)[C@H](CCSC)NC(=O)[C@H](N)Cc1c[nH]c2ccccc12)C(=O)N[C@@H](Cc1ccc(N=[N+]=[N-])cc1)C(N)=O [HT-82, D-Trp-Met-Asp(Ome)-Phe(4-N3)-NH2]",12.78
20,"COC(=O)C[C@H](NC(=O)[C@H](CCS(C)(=O)=O)NC(=O)[C@H](N)Cc1c[nH]c2ccccc12)C(=O)N[C@@H](Cc1ccc(Cl)cc1)C(N)=O [HT-137, D-Trp-Met(O2)-Asp(Ome)-Phe(4-Cl)-NH2]",2.10

# From patent publication US20240415918A1, “Polypeptide and its use as a CCK receptor agonist/antagonist” (Centre for Regenerative Medicine & Health, Hong Kong …, priority 2021, published 2024)
